By IC50 is commonly meant the midpoint of a concentration-inhibition curve.

28 molecules from patent US7704995B2 (Exelixis, Inc., priority 2003, dated 2010) can be followed below.

The target of this assay is T1, Chk1 (Homo sapiens, UniProt O14757).
T1 construct: purchased Upstate Biotechnology
T1 sequence (O14757 1-476): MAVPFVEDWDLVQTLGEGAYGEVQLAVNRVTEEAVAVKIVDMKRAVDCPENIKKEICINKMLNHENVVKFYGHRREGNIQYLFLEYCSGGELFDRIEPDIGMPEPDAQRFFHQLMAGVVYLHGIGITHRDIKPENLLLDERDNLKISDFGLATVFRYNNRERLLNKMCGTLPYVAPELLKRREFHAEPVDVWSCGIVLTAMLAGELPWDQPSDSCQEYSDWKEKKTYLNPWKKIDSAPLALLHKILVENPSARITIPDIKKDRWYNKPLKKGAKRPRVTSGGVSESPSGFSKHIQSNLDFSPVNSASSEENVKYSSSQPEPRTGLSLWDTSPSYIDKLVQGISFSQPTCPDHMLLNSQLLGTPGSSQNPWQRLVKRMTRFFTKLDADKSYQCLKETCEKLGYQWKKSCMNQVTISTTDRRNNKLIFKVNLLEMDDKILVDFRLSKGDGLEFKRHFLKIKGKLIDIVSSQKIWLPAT
Put plainly: Chk1 kinase assay: incorporation of γ-33P ATP into immobilized myelin basic protein. Type of assay: biochemical. Conditions: Table 11, Chk1 only; class symbols A-D; read-out: Chk1 IC50. The method in brief:
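Radiometric filter-free format: Chk1 10 nM, 10 μM ATP; Chk2 20 nM, 30 μM ATP; γ-33P ATP tracer; immobilized MBP substrate; Hepes pH 7.6, 10 mM MgCl2, 1 mM DTT; 1 h RT; 1% DMSO. Scintillation counting of washed plates. IC50/Ki from curve fit.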

Consider `Nc1ncc(-c2cccc(C(=O)NCc3ccc(Cl)cc3F)c2)nc1C(=O)N[C@H]1CCCCNC1` [Example 996, 3-amino-N-[(3S)-azepan-3-yl]-6-[3-({[(4-chloro-2-fluorophenyl)methyl]amino}carbonyl)phenyl]pyrazine-2-carboxamide], for which the half-inhibitory concentration (IC50) was < 50 nM.

In the case of `Nc1ncc(-c2cccc(C(=O)NCc3cccc(Cl)c3F)c2)nc1C(=O)N[C@H]1CCCNC1` [Example 997, 3-amino-6-[3-({[(3-chloro-2-fluorophenyl)methyl]amino}carbonyl)phenyl]-N-[(3S)-piperidin-3-yl]pyrazine-2-carboxamide], the IC50 is < 50 nM.

With `Nc1ncc(-c2cccc(C(=O)NCc3cc(C(F)(F)F)ccc3F)c2)nc1C(=O)N[C@H]1CCCNC1` [Example 998, 3-amino-6-{3-[({[2-fluoro-5-(trifluoromethyl)phenyl]methyl}amino)carbonyl]phenyl}-N-[(3S)-piperidin-3-yl]pyrazine-2-carboxamide], the IC50 was < 50 nM.

In the case of `Nc1ncc(-c2cccc(CNCc3ccc(F)cc3F)c2)nc1C(=O)N[C@H]1CCCNC1` [Example 999, 3-amino-6-[3-({[(2,4-difluorophenyl)methyl]amino}methyl)phenyl]-N-[(3S)-piperidin-3-yl]pyrazine-2-carboxamide], the IC50 is < 50 nM.

Consider `Nc1ncc(-c2cccc(C(=O)NCc3c(F)ccc(Cl)c3F)c2)nc1C(=O)N[C@H]1CCCNC1` [Example 1000, 3-amino-6-[3-({[(3-chloro-2,6-difluorophenyl)methyl]amino}carbonyl)phenyl]-N-[(3S)-piperidin-3-yl]pyrazine-2-carboxamide], for which the IC50 is < 50 nM.

Turning to `Nc1ncc(-c2cccc(C(=O)NCc3ccc(F)cc3Cl)c2)nc1C(=O)N[C@H]1CCCNC1` [Example 1002, 3-amino-6-[3-({[(2-chloro-4-fluorophenyl)methyl]amino}carbonyl)phenyl]-N-[(3S)-piperidin-3-yl]pyrazine-2-carboxamide], the IC50 was < 50 nM.

Consider `Nc1ncc(-c2cccc(C(=O)NCc3cccc(Cl)c3Cl)c2)nc1C(=O)N[C@H]1CCCNC1` [Example 1003, 3-amino-6-[3-({[(2,3-dichlorophenyl)methyl]amino}carbonyl)phenyl]-N-[(3S)-piperidin-3-yl]pyrazine-2-carboxamide], for which the IC50 was < 50 nM.

Consider `Nc1ncc(-c2cccc(C(=O)NCc3c(F)ccc(F)c3F)c2)nc1C(=O)N[C@H]1CCCNC1` [Example 1004, 3-amino-N-[(3S)-piperidin-3-yl]-6-[3-({[(2,3,6-trifluorophenyl)methyl]amino}carbonyl)phenyl]pyrazine-2-carboxamide], for which the IC50 was < 50 nM.

Consider `Nc1ncc(-c2cccc(C(=O)NCc3ccc(Cl)c(C(F)(F)F)c3)c2)nc1C(=O)N[C@H]1CCCNC1` [Example 1005, 3-amino-6-{3-[({[4-chloro-3-(trifluoromethyl)phenyl]methyl}amino)carbonyl]phenyl}-N-[(3S)-piperidin-3-yl]pyrazine-2-carboxamide], for which the IC50 is < 50 nM.

As to `Nc1ncc(-c2cccc(C(=O)NCc3cccc(F)c3F)c2)nc1C(=O)N[C@H]1CCCCNC1` [Example 1007, 3-amino-N-[(3S)-azepan-3-yl]-6-[3-({[(2,3-difluorophenyl)methyl]amino}carbonyl)phenyl]pyrazine-2-carboxamide], the IC50 was < 50 nM.

As for `Nc1ncc(-c2cccc(C(=O)NCc3ccc(F)c(F)c3)c2)nc1C(=O)N[C@H]1CCCCNC1` [Example 1008, 3-amino-N-[(3S)-azepan-3-yl]-6-[3-({[(3,4-difluorophenyl)methyl]amino}carbonyl)phenyl]pyrazine-2-carboxamide], the half-maximal inhibitory concentration (IC50) was < 50 nM.

As to `Nc1ncc(-c2cccc(C(=O)NCc3cc(F)cc(F)c3)c2)nc1C(=O)N[C@H]1CCCCNC1` [Example 1009, 3-amino-N-[(3S)-azepan-3-yl]-6-[3-({[(3,5-difluorophenyl)methyl]amino}carbonyl)phenyl]pyrazine-2-carboxamide], the IC50 was < 50 nM.

`Nc1ncc(-c2cccc(C(=O)NCc3c(F)cccc3F)c2)nc1C(=O)N[C@H]1CCCNC1` [Example 1010, 3-amino-6-[3-({[(2,6-difluorophenyl)methyl]amino}carbonyl)phenyl]-N-[(3S)-piperidin-3-yl]pyrazine-2-carboxamide]: the IC50 is < 50 nM.

`Nc1ncc(-c2cccc(C(=O)NCc3ccc(F)c(F)c3)c2)nc1C(=O)N[C@H]1CCCNC1` [Example 1011, 3-amino-6-[3-({[(3,4-difluorophenyl)methyl]amino}carbonyl)phenyl]-N-[(3S)-piperidin-3-yl]pyrazine-2-carboxamide]: the IC50 is < 50 nM.

As to `Cc1ccc(Cl)c(CNC(=O)c2cccc(-c3cnc(N)c(C(=O)N[C@H]4CCCNC4)n3)c2)c1F` [Example 1012, 3-amino-6-[3-({[(6-chloro-2-fluoro-3-methylphenyl)methyl]amino}carbonyl)phenyl]-N-[(3S)-piperidin-3-yl]pyrazine-2-carboxamide], the IC50 was < 50 nM.

Regarding `Cc1ccc(F)c(CNC(=O)c2cccc(-c3cnc(N)c(C(=O)N[C@H]4CCCNC4)n3)c2)c1Cl` [Example 1013, 3-amino-6-[3-({[(2-chloro-6-fluoro-3-methylphenyl)methyl]amino}carbonyl)phenyl]-N-[(3S)-piperidin-3-yl]pyrazine-2-carboxamide], the IC50 is < 50 nM.

With `Nc1ncc(-c2cccc(C(=O)NCc3c(F)ccc(F)c3Cl)c2)nc1C(=O)N[C@H]1CCCNC1` [Example 1014, 3-amino-6-[3-({[(2-chloro-3,6-difluorophenyl)methyl]amino}carbonyl)phenyl]-N-[(3S)-piperidin-3-yl]pyrazine-2-carboxamide], the IC50 was < 50 nM.

On to `Nc1ncc(-c2cccc(C(=O)NCc3cc(Cl)ccc3Cl)c2)nc1C(=O)N[C@H]1CCCNC1` [Example 1015, 3-amino-6-[3-({[(2,5-dichlorophenyl)methyl]amino}carbonyl)phenyl]-N-[(3S)-piperidin-3-yl]pyrazine-2-carboxamide], for which the IC50 was < 50 nM.

Regarding `Nc1ncc(-c2cccc(C(=O)NCc3ccc(F)c(F)c3F)c2)nc1C(=O)N[C@H]1CCCNC1` [Example 1016, 3-amino-N-[(3S)-piperidin-3-yl]-6-[3-({[(2,3,4-trifluorophenyl)methyl]amino}carbonyl)phenyl]pyrazine-2-carboxamide], the concentration for half-maximal inhibition (IC50) is < 50 nM.

Turning to `Nc1ncc(-c2cccc(C(=O)NCc3cccc(F)c3F)c2)nc1C(=O)N[C@H]1CCCNC1` [Example 1017, 3-amino-6-[3-({[(2,3-difluorophenyl)methyl]amino}carbonyl)phenyl]-N-[(3S)-piperidin-3-yl]pyrazine-2-carboxamide], the half-maximal inhibitory concentration (IC50) was < 50 nM.

As for `Cc1ccc(CNC(=O)c2cccc(-c3cnc(N)c(C(=O)N[C@H]4CCCNC4)n3)c2)cc1F` [Example 1018, 3-amino-6-[3-({[(3-fluoro-4-methylphenyl)methyl]amino}carbonyl)phenyl]-N-[(3S)-piperidin-3-yl]pyrazine-2-carboxamide], the IC50 was < 50 nM.

As for `Nc1ncc(-c2cccc(C(=O)NCc3c(F)ccc(Cl)c3F)c2)nc1C(=O)N[C@H]1CCCCNC1` [Example 1019, 3-amino-N-[(3S)-azepan-3-yl]-6-[3-({[(3-chloro-2,6-difluorophenyl)methyl]amino}carbonyl)phenyl]pyrazine-2-carboxamide], the IC50 is < 50 nM.

Regarding `Nc1ncc(-c2cccc(C(=O)NCc3ccc4c(c3)OCCO4)c2)nc1C(=O)N[C@H]1CCCCNC1` [Example 1020, 3-amino-N-[(3S)-azepan-3-yl]-6-(3-{[(2,3-dihydro-1,4-benzodioxin-6-ylmethyl)amino]carbonyl}phenyl)pyrazine-2-carboxamide], the IC50 is < 50 nM.

Regarding `Nc1ncc(-c2cccc(C(=O)NCc3c(F)cccc3Cl)c2)nc1C(=O)N[C@H]1CCCCNC1` [Example 1021, 3-amino-N-[(3S)-azepan-3-yl]-6-[3-({[(2-chloro-6-fluorophenyl)methyl]amino}carbonyl)phenyl]pyrazine-2-carboxamide], the IC50 was < 50 nM.

Take `Nc1ncc(-c2cccc(C(=O)NCc3c(F)cccc3F)c2)nc1C(=O)N[C@H]1CCCCNC1` [Example 1022, 3-amino-N-[(3S)-azepan-3-yl]-6-[3-({[(2,6-difluorophenyl)methyl]amino}carbonyl)phenyl]pyrazine-2-carboxamide]: the half-maximal inhibitory concentration (IC50) is < 50 nM.

As to `Nc1ncc(-c2cccc(C(=O)NCc3ccc(F)c(Cl)c3)c2)nc1C(=O)N[C@H]1CCCCNC1` [Example 1023, 3-amino-N-[(3S)-azepan-3-yl]-6-[3-({[(3-chloro-4-fluorophenyl)methyl]amino}carbonyl)phenyl]pyrazine-2-carboxamide], the IC50 was < 50 nM.

Take `Nc1ncc(-c2cccc(C(=O)NCc3cccc(Cl)c3F)c2)nc1C(=O)N[C@H]1CCCCNC1` [Example 1024, 3-amino-N-[(3S)-azepan-3-yl]-6-[3-({[(3-chloro-2-fluorophenyl)methyl]amino}carbonyl)phenyl]pyrazine-2-carboxamide]: the IC50 is < 50 nM.

As for `Cc1c(Cl)cccc1CNC(=O)c1cccc(-c2cnc(N)c(C(=O)N[C@H]3CCCNC3)n2)c1` [Example 1025, 3-amino-6-[3-({[(3-chloro-2-methylphenyl)methyl]amino}carbonyl)phenyl]-N-[(3S)-piperidin-3-yl]pyrazine-2-carboxamide], the IC50 was < 50 nM.
